Data taken from patent US8530404B2, “Compounds and methods for treatment of cancer” (FibroGen, Inc., priority 2005, dated 2013).
Like-named read-outs stand apart in the source and are kept apart here. Marks after values point to notes of the source that are not given here.

Key:
human H-460 lung tumors = assay: Subcutaneously implanted human H-460 lung tumor mouse xenograft (Example 1); assay type: in vivo; details: for Mean Tumor Weight at Necropsy: day 32
Source text: Immuno-compromised athymic CD-1 nu/nu nude mice males (5-6 weeks old) were used in this study (Charles River Laboratories, Wilmington, Mass.). Animals were maintained in a HEPA-filtered environment during the experimental period. Cages, food, and bedding were autoclaved. Animal diets were obtained from Harlan Teklad (Madison, Wis.). […] The human H460 lung cancer cell line used was obtained from the National Cancer Institute. (Brower et al., (1986) Cancer Res 46:798-806.) Xenografted H-460 tumors are sensitive to chemotherapeutics commonly used in treatment of lung cancer. […] A stock tumor was established by subcutaneously injecting a cell suspension into nude mice. The resulting tumor was maintained in nude mice subcutaneously as tumor stock prior to use. Tumor implantation was performed when the stock tumors were in log phase of growth. Before implantation, tumor tissue was harvested from stock mice and placed in RPMI-1640 medium. Necrotic tissues were dissected away and viable tissues were cut into 1-2 mm^2 pieces. Tumor fragments were then transplanted subcutaneously to the right flank of the nude mice. Treatment (administration of compounds of the present invention) was started when the inoculated tumors reached approximately 100 mm^3, and continued for four weeks. […] [table] Sizes of the primary tumors were measured through the skin with calipers once per week. […] Body weight of the mice in each group was also measured once per week during the experimental period. All animals were sacrificed following thirty-two days of treatment. Primary tumors were excised and weighed on an electronic balance. Blood samples were taken during terminal sacrifice and placed in microhematocrit tubes containing EDTA. Complete Blood Counts (CBC) and reticulocyte analysis were performed with the Cell Dyn 3700 analyzer (Abbott Diagnostics), as described by the manufacturer.

[1] = test system: human H-460-GFP lung tumors; assay: Orthotopically implanted human H-460-GFP lung tumor mouse xenograft, survival and metastasis (Example 3); assay type: in vivo; details: for Metastatic Incidence (proportion of animals exhibiting mediastinal lymph node metastasis): vehicle 9/10
Experimental: To examine the effect of methods and compounds of the present invention in a metastatic model of tumor progression, compounds of the invention were administered to orthotopically implanted H-460-GFP xenografted animals. Tumor models employing surgical orthotopic implantation (SOI) into the organ of origin of the original tumor are regarded as representative of cancer progression and metastasis in humans. Orthotopic implantation of H-460 increases the rate of tumor metastasis.
This experiment is carried out as described in Example 1 above, with the following modifications. To aid in identification and scoring of metastasis, the human H-460 lung cancer cell line was replaced by genetically-engineered tumors of GFP-transfected H-460 cells. 1-2 mm^3 H460-GFP lung tumor fragments were implanted by surgical orthotopic implantation (SOI) and sutured directly into lung tissue. (Yang et al., (1998) Cancer Res 58:4217-4221.) Dosing was initiated immediately after successful confirmation of tumor take by fluorescent GFP imaging (˜5 days following tumor implantation). Doxorubicin (DOX, 7.5 mg/kg, i.v. administration) was used as a chemotherapy control, and was administered on treatment days 3, 7, and 11.
In addition to weekly caliper measurement of primary tumor size, GFP imaging was performed on animals to monitor primary tumor progression and metastasis, starting the first day of treatment. Study endpoints were reached when an average tumor size of 2 cc or three morbid mice appear in any one group, whichever occurs first, regardless of treatment duration. Each animal was checked daily for mortality or signs of morbidity. Morbid animals were frozen. All animals, including dead animals, were examined by GFP imaging for primary tumor and metastasis at necropsy. Imaging and caliper measurements were used to determine the effects of treatment. Primary tumors were excised, measured and weighed at necropsy. Blood samples were taken during terminal sacrifice and complete blood counts (CBC) and reticulocyte analysis were performed.
Tumor metastasis is associated with increased morbidity and mortality in humans with metastatic cancer and in animal models of metastatic cancer. […] The increased morbidity and mortality were recorded and animals were preserved for subsequent necropsy. The study was terminated after >3 animals were found morbid in the vehicle group on treatment day 14, at which point the remaining animals were sacrificed to evaluate and compare tumor progression in the various treatment groups.
To determine metastatic frequency, the thoracic and abdominal cavities of animals were examined by fluorescent imaging.

BNIP3 gene expression = assay: In vivo BNIP3 gene expression in Swiss Webster mice (quantitative PCR); details: Mus musculus, iv, 4 h, single 60 mg/kg i.v. dose, four hours after administration, normalized to 18S
Experimental: (§1) The effects of various compounds of the present invention on the expression of genes associated with tumor growth and progression (e.g., expression of genes associated with anti-proliferative effects) were examined in vivo as follows. In these studies, male Swiss Webster mice (25 g) were administered a single intravenous (i.v.) dose of various compounds (60 mg/kg) of the present invention via the tail vein. Four hours after administration of compound, the kidneys and liver were removed and preserved in RNAlater (Ambion). RNA isolation and cDNA synthesis was carried out as follows. Murine kidney tissue was added to TRIzol (Invitrogen) and homogenized using a 5-mm stainless steel bead for 4 minutes at 25 Hz in a Mixer Mill 300 (Qiagen). Homogenates were extracted with chloroform according to the manufacturer's instructions and aqueous supernatants were isolated. The aqueous supernatants were combined with equal volumes of 70% ethanol and then loaded onto RNeasy Mini spin columns (Qiagen). RNA was isolated according to the manufacturer's instructions.
(§2) Synthesis of cDNA from the isolated total RNA was carried out using Omniscript reverse transcriptase (Qiagen) and random primers according to the manufacturer's instructions. Measurement of gene expression levels in compound-treated animals and in vehicle-treated control animals was performed by quantitative PCR using TaqMan Universal PCR Master Mix (Applied Biosystems) and TaqMan Assay-on-Demand assays (Applied Biosystems) in a Prism 7000 system instrument (Applied Biosystems), according to manufacturer's instructions. The assays used were as follows: 18S ribosomal RNA, Hs99999901_s1; BNIP3, Mm00833810_g1; BNIP3L, Mm00786306_s1; NDRG1, Mm00440447_m1. Each PCR amplification reaction included a standard curve and a water blank. Data for gene expression levels for BNIP3, BNIP3L, and NDRG1 were normalized to that of 18S ribosomal RNA within each sample. Data is presented as fold change in specific mRNA levels relative to that of non-treated control animals.

BNIP3L gene expression = assay: In vivo BNIP3L gene expression in Swiss Webster mice (quantitative PCR); details: Mus musculus, iv, 4 h, single 60 mg/kg i.v. dose, four hours after administration, normalized to 18S
Experimental: as §1, §2

[2] = read-out: fold change in BNIP3 mRNA level, kidney
[3] = read-out: fold change in BNIP3L mRNA level, kidney
[4] = read-out: fold change in BNIP3 mRNA level, liver
[5] = read-out: fold change in BNIP3L mRNA level, liver

Compound | mean tumor volume (human H-460 lung tumors; day 0, 20 mg/kg PO) [mm^3] | mean tumor volume (human H-460 lung tumors; day 10, 20 mg/kg PO) [mm^3] | mean tumor volume (human H-460 lung tumors; day 17, 20 mg/kg PO) [mm^3] | mean tumor volume (human H-460 lung tumors; day 24, 20 mg/kg PO) | mean tumor volume (human H-460 lung tumors; day 31, 20 mg/kg PO) | Mean Tumor Weight at Necropsy (human H-460 lung tumors; 20 mg/kg PO) [g] | Metastatic Incidence (proportion of animals exhibiting mediastinal lymph node metastasis) ([1]; 20 mg/kg) | proportion of surviving animals ([1]; treatment day 9, 20 mg/kg) | proportion of surviving animals ([1]; treatment day 11, 20 mg/kg) | proportion of surviving animals ([1]; treatment day 12, 20 mg/kg) | proportion of surviving animals ([1]; treatment day 13, 20 mg/kg) | proportion of surviving animals ([1]; treatment day 14, 20 mg/kg) | fold induction at 60 mg/kg (BNIP3 gene expression; [2]) | fold induction at 60 mg/kg (BNIP3L gene expression; [3]) | fold induction at 60 mg/kg (BNIP3 gene expression; [4]) | fold induction at 60 mg/kg (BNIP3L gene expression; [5]) | also measured
O=C(O)CNC(=O)c1nc(Cl)c2ccccc2c1O [Compound A, [(1-Chloro-4-hydroxy-isoquinoline-3-carbonyl)-amino]-acetic acid] | 88 | 730 | 1376 | 2499** mm^3 | 2670** mm^3 | 3.05 | 8/10 | 10/10 | 10/10 | 10/10 | 8/10 | 8/10 | – | – | – | – | mean tumor volume (human H-460 lung tumors; day 0, 60 mg/kg PO): 105 mm^3; mean tumor volume (human H-460 lung tumors; day 10, 60 mg/kg PO): 895 mm^3; mean tumor volume (human H-460 lung tumors; day 17, 60 mg/kg PO): 1742 mm^3; mean tumor volume (human H-460 lung tumors; day 24, 60 mg/kg PO): 2662* mm^3; mean tumor volume (human H-460 lung tumors; day 31, 60 mg/kg PO): 2968* mm^3; Mean Tumor Weight at Necropsy (human H-460 lung tumors; 60 mg/kg PO): 3.09 g; Metastatic Incidence (proportion of animals exhibiting mediastinal lymph node metastasis) ([1]; 60 mg/kg): 7/10; proportion of surviving animals ([1]; treatment day 9, 60 mg/kg): 10/10; proportion of surviving animals ([1]; treatment day 11, 60 mg/kg): 10/10; proportion of surviving animals ([1]; treatment day 12, 60 mg/kg): 9/10; proportion of surviving animals ([1]; treatment day 13, 60 mg/kg): 9/10; proportion of surviving animals ([1]; treatment day 14, 60 mg/kg): 9/10
C[C@H](NC(=O)c1ncc2cc(Oc3ccccc3)ccc2c1O)C(=O)O [Compound B, (S)-2-[(4-Hydroxy-7-phenoxy-isoquinoline-3-carbonyl)-amino]-propionic acid] | 108 | 914 | 1858 | 3074 mm^3 | 3229 mm^3 | 3.60 | – | – | – | – | – | – | 2.1 | 1.2 | – | – | mean tumor volume (human H-460 lung tumors; day 0, 6 mg/kg PO): 101 mm^3; mean tumor volume (human H-460 lung tumors; day 10, 6 mg/kg PO): 884 mm^3; mean tumor volume (human H-460 lung tumors; day 17, 6 mg/kg PO): 1949 mm^3; mean tumor volume (human H-460 lung tumors; day 24, 6 mg/kg PO): 3131 mm^3; mean tumor volume (human H-460 lung tumors; day 31, 6 mg/kg PO): 3343 mm^3; Mean Tumor Weight at Necropsy (human H-460 lung tumors; 6 mg/kg PO): 4.27 g
COc1ccc(Oc2ccc3c(O)c(C(=O)NCC(=O)O)ncc3c2)cc1 [Compound C, {[4-Hydroxy-7-(4-methoxy-phenoxy)-isoquinoline-3-carbonyl]-amino}-acetic acid] | 91 | 638 | 1365 | 2239** mm^3 | 2373** mm^3 | 2.35 | 5/10 | 10/10 | 10/10 | 9/10 | 8/10 | 8/10 | 1.5 | 0.9 | 3.5 | 2.6 | –
Cc1nc(C(=O)NCC(=O)O)c(O)c2ccc(Oc3ccccc3)cc12 [Compound D, [(4-Hydroxy-1-methyl-7-phenoxy-isoquinoline-3-carbonyl)-amino]-acetic acid] | – | – | – | – | – | – | 9/10 | 10/10 | 9/10 | 9/10 | 9/10 | 9/10 | 5.8 | 5 | 1.5 | 1.2 | –
O=C(O)CNC(=O)c1ncc2cc(Oc3ccc(F)cc3)ccc2c1O [Compound E, {[7-(4-fluoro-phenoxy)-4-hydroxy-isoquinoline-3-carbonyl]-amino}-acetic acid] | – | – | – | – | – | – | – | 9/10 | 9/10 | 9/10 | 8/10 | 8/10 | 2.1 | 0.8 | 1.8 | 1.7 | –
